≈ marks a conversion by molar mass, not a printed value. Like-named read-outs stand apart in the source and are kept apart here. Non-standard residues stand in square brackets, D forms with d. Residues, ends and D or L forms follow the SMILES beside them. No end group written: not given here. pGlu = O=C1CC[C@@H](C(=O)O)N1
Assays:
apTKRPR-A = target: T1, apTKRPR-A (Aplysia californica, UniProt A0AAU7SSZ1); experiment: IP1 accumulation assay, CHO-K1 cells transiently expressing apTKRPR-A; assay type: cell-based
T1 sequence (A0AAU7SSZ1 1-398): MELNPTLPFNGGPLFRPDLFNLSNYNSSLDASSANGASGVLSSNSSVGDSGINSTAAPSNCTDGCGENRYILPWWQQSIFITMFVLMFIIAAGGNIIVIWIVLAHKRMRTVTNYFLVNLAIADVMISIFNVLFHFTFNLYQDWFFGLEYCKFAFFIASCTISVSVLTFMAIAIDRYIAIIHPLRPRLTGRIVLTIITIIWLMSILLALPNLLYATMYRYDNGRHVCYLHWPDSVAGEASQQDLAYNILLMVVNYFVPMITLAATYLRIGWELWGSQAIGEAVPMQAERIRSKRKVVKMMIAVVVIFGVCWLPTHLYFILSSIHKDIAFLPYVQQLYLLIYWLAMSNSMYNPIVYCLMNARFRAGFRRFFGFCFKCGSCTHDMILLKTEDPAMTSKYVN
Protocol: (§1) To express putative Aplysia receptors transiently in CHO-K1 cells, the cDNAs were subcloned into the pcDNA3.1(+) or pcDNA3.1(+)-FLAG (for ELISA experiments only, see “Cell surface expression analysis by ELISA” section) expression vector. On the day before transfection, the CHO-K1 cells were passaged into 60 mm diameter tissue culture–treated dishes, and the transfection experiments were performed when the cells were grown to 70 to 90% confluence. CHO-K1 cells were transfected with the cDNA plasmid constructs using Turbofect Transfection reagent (Thermo Fisher Scientific, R0531), following the manufacturer’s instructions. […] The DNA/TurboFect mixture dropwise was then added to the dish, and the cells were incubated at 37 °C in a humidified incubator containing 5% CO2 overnight.
(§2) On the third day, the activation of the putative receptors was detected by monitoring intracellular IP1 concentration using an IP-One Gq kit (Cisbio, 62IPAPEB) in Tecan Spark. Except for using 0.5x reagent, all other procedures were performed following the manufacturer’s instructions. IP1 accumulation assay measures the accumulation of IP1, which is hydrolyzed from the second messenger, and inositol triphosphate. Inositol triphosphate is generated by the Gαq pathway when a GPCR is activated by an appropriate ligand.

apTKRPR-B = target: T2, apTKRPR-B (Aplysia californica, UniProt A0AAU7STS1); experiment: IP1 accumulation assay, CHO-K1 cells transiently expressing apTKRPR-B; assay type: cell-based
T2 sequence (A0AAU7STS1 1-447): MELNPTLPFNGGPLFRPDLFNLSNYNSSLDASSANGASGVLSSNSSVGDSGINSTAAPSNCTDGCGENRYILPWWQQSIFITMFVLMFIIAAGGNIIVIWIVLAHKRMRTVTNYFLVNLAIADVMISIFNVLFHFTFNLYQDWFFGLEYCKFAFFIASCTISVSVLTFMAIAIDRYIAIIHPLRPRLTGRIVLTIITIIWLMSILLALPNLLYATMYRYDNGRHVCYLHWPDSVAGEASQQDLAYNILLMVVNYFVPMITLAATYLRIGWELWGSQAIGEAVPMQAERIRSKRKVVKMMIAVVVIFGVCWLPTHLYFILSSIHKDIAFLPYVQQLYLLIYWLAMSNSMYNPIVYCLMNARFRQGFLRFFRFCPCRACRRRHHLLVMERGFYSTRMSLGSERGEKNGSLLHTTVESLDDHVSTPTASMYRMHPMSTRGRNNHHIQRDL
Protocol: as §1, §2

[1] = trifluoroacetate counter ion, ref ChinaPeptides Co., Ltd. certificate of analysis (Fig. S21), cited from earlier work
[2] = target: Aplysia tachykinin-related peptide receptor A (apTKRPR-A) (Aplysia californica)
[3] = target: Aplysia tachykinin-related peptide receptor B (apTKRPR-B) (Aplysia californica)
[4] = log10 of EC50 in M, negative, IP1 accumulation, CHO-K1, mean ± SD of at least three independent experiments (apTKRP-1 n = 9; apTKRP-2a n = 11; apTKRP-2b n = 19; analogs, apTKRP-2b-OH n = 4), read-out: apTKRPR-A log[EC50] (converted)
[5] = log10 of EC50 in M, negative, IP1 accumulation, CHO-K1, mean ± SD of at least three independent experiments (apTKRP-1 n = 9; apTKRP-2a n = 11; apTKRP-2b n = 19; analogs, apTKRP-2b-OH n = 4), read-out: apTKRPR-B log[EC50] (converted)

For C[C@H](NC(=O)[C@H](Cc1c[nH]cn1)NC(=O)[C@@H]1CCCN1C(=O)[C@@H]1CCC(=O)N1)C(=O)NCC(=O)N[C@@H](Cc1ccccc1)C(=O)N[C@@H](Cc1c[nH]cn1)C(=O)NCC(=O)N[C@@H](CO)C(=O)N[C@@H](CCCNC(=N)N)C(N)=O [[Ala^4]apTKRP-2b] ([pGlu]PHAGFHGSR-NH2), the EC50 (apTKRPR-A) is listed as 9.77 nM, the EC50 (apTKRPR-B) is listed as 1.7 nM and the Solubility ([1]; in 13%ACN/87%H2O) is listed as 1000 µg/mL (≈ 930 µM).

In the case of CC(C)C[C@H](NC(=O)[C@H](Cc1c[nH]cn1)NC(=O)[C@@H]1CCCN1C(=O)[C@@H]1CCC(=O)N1)C(=O)NCC(=O)N[C@@H](Cc1ccccc1)C(=O)N[C@@H](Cc1c[nH]cn1)C(=O)N[C@@H](C)C(=O)N[C@@H](CO)C(=O)N[C@@H](CCCNC(=N)N)C(N)=O [[Ala^8]apTKRP-2b] ([pGlu]PHLGFHASR-NH2), the EC50 (apTKRPR-A) is given as 20.9 nM, the EC50 (apTKRPR-B) is given as 3.09 nM and the Solubility ([1]; in 15%ACN/85%H2O) is given as 1000 µg/mL (≈ 884 µM).

For CC(C)C[C@H](NC(=O)[C@H](Cc1c[nH]cn1)NC(=O)[C@@H]1CCCN1C(=O)[C@@H]1CCC(=O)N1)C(=O)NCC(=O)N[C@@H](Cc1ccccc1)C(=O)N[C@@H](C)C(=O)NCC(=O)N[C@@H](CO)C(=O)N[C@@H](CCCNC(=N)N)C(N)=O [[Ala^7]apTKRP-2b] ([pGlu]PHLGFAGSR-NH2), the EC50 (apTKRPR-A) is listed as 1070 nM and the Solubility ([1]; in 15%ACN/85%H2O) is listed as 1000 µg/mL (≈ 951 µM).

In the case of CC(C)C[C@H](NC(=O)[C@H](Cc1c[nH]cn1)NC(=O)[C@@H]1CCCN1C(=O)[C@@H]1CCC(=O)N1)C(=O)N[C@@H](C)C(=O)N[C@@H](Cc1ccccc1)C(=O)N[C@@H](Cc1c[nH]cn1)C(=O)NCC(=O)N[C@@H](CO)C(=O)N[C@@H](CCCNC(=N)N)C(N)=O [[Ala^5]apTKRP-2b] ([pGlu]PHLAFHGSR-NH2), the EC50 (apTKRPR-A) is listed as 1660 nM, the EC50 (apTKRPR-B) is listed as 537 nM and the Solubility ([1]; in 15%ACN/85%H2O) is listed as 1000 µg/mL (≈ 884 µM).

For CC(C)C[C@H](NC(=O)[C@H](C)NC(=O)[C@@H]1CCCN1C(=O)[C@@H]1CCC(=O)N1)C(=O)NCC(=O)N[C@@H](Cc1ccccc1)C(=O)N[C@@H](Cc1c[nH]cn1)C(=O)NCC(=O)N[C@@H](CO)C(=O)N[C@@H](CCCNC(=N)N)C(N)=O [[Ala^3]apTKRP-2b] ([pGlu]PALGFHGSR-NH2), the EC50 (apTKRPR-A) is given as 295 nM, the EC50 (apTKRPR-B) is given as 32.4 nM and the Solubility ([1]; in 15%ACN/85%H2O) is given as 1000 µg/mL (≈ 951 µM).

For CC(C)C[C@H](NC(=O)[C@H](Cc1c[nH]cn1)NC(=O)[C@@H]1CCCN1C(=O)[C@@H]1CCC(=O)N1)C(=O)NCC(=O)N[C@@H](Cc1ccccc1)C(=O)N[C@@H](Cc1c[nH]cn1)C(=O)NCC(=O)N[C@@H](C)C(=O)N[C@@H](CCCNC(=N)N)C(N)=O [[Ala^9]apTKRP-2b] ([pGlu]PHLGFHGAR-NH2), the EC50 (apTKRPR-A) is given as 195 nM, the EC50 (apTKRPR-B) is given as 17.4 nM and the Solubility ([1]; in 15%ACN/85%H2O) is given as 1000 µg/mL (≈ 908 µM).

In the case of FKPSGFMGSR-NH2 [apTKRP-1], the EC50 (apTKRPR-A; [4]) is reported as 145 nM and the EC50 (apTKRPR-B; [5]) is reported as 24.5 nM.

For CC(C)C[C@H](NC(=O)[C@H](Cc1c[nH]cn1)NC(=O)[C@@H]1CCCN1C(=O)[C@@H]1CCC(=O)N1)C(=O)NCC(=O)N[C@@H](Cc1ccccc1)C(=O)N[C@@H](Cc1c[nH]cn1)C(=O)NCC(=O)N[C@@H](CO)C(=O)N[C@@H](C)C(N)=O [[Ala^10]apTKRP-2b] ([pGlu]PHLGFHGSA-NH2), the EC50 (apTKRPR-A) is given as over 10000 nM, the EC50 (apTKRPR-B) is given as over 10000 nM and the Solubility ([1]; in 15%ACN/85%H2O) is given as 1000 µg/mL (≈ 969 µM).

In the case of CC(C)C[C@H](NC(=O)[C@H](Cc1c[nH]cn1)NC(=O)[C@H](C)NC(=O)[C@@H]1CCC(=O)N1)C(=O)NCC(=O)N[C@@H](Cc1ccccc1)C(=O)N[C@@H](Cc1c[nH]cn1)C(=O)NCC(=O)N[C@@H](CO)C(=O)N[C@@H](CCCNC(=N)N)C(N)=O [[Ala^2]apTKRP-2b] ([pGlu]AHLGFHGSR-NH2), the EC50 (apTKRPR-A) is given as 309 nM, the EC50 (apTKRPR-B) is given as 33.1 nM and the Solubility ([1]; in 15%ACN/85%H2O) is given as 1000 µg/mL (≈ 916 µM).

In the case of CC(C)C[C@H](NC(=O)[C@H](Cc1c[nH]cn1)NC(=O)[C@@H]1CCCN1C(=O)[C@@H]1CCC(=O)N1)C(=O)NCC(=O)N[C@@H](C)C(=O)N[C@@H](Cc1c[nH]cn1)C(=O)NCC(=O)N[C@@H](CO)C(=O)N[C@@H](CCCNC(=N)N)C(N)=O [[Ala^6]apTKRP-2b] ([pGlu]PHLGAHGSR-NH2), the EC50 (apTKRPR-A) is listed as 1510 nM, the EC50 (apTKRPR-B) is listed as 537 nM and the Solubility ([1]; in 13%ACN/87%H2O) is listed as 1000 µg/mL (≈ 960 µM).

Molecule CC(C)C[C@H](NC(=O)[C@H](Cc1c[nH]cn1)NC(=O)[C@@H]1CCCN1C(=O)[C@@H]1CCC(=O)N1)C(=O)NCC(=O)N[C@@H](Cc1ccccc1)C(=O)N[C@@H](Cc1c[nH]cn1)C(=O)NCC(=O)N[C@@H](CO)C(=O)N[C@@H](CCCNC(=N)N)C(=O)O [apTKRP-2b-OH] ([pGlu]PHLGFHGSR-OH) has an EC50 (apTKRPR-A; IP1 accumulation, CHO-K1, from average log[EC50], read-out: apTKRPR-A [EC50]) of over 10000 nM, an EC50 (apTKRPR-A; [4]) of over 10000 nM and an EC50 (apTKRPR-B; IP1 accumulation, CHO-K1, from average log[EC50], read-out: apTKRPR-B [EC50]) of over 10000 nM. The EC50 (apTKRPR-B; [5]) was over 10000 nM.

B1: apTKRP-2b analog with Leu instead of Gly at position eight (peptide)
peptide: [pGlu]PHLGFHLSR-NH2
SMILES: CC(C)C[C@H](NC(=O)[C@H](Cc1c[nH]cn1)NC(=O)[C@@H]1CCCN1C(=O)[C@@H]1CCC(=O)N1)C(=O)NCC(=O)N[C@@H](Cc1ccccc1)C(=O)N[C@@H](Cc1c[nH]cn1)C(=O)N[C@@H](CC(C)C)C(=O)N[C@@H](CO)C(=O)N[C@@H](CCCNC(=N)N)C(N)=O
In the case of B1, the EC50 of IP1 accumulation in CHO-K1 cells expressing the receptor [2] is reported as over 10000 nM and the EC50 of IP1 accumulation in CHO-K1 cells expressing the receptor [3] is reported as over 10000 nM.

B2: apTKRP-2b analog with Lys instead of Gly at position eight (peptide)
peptide: [pGlu]PHLGFHKSR-NH2
SMILES: CC(C)C[C@H](NC(=O)[C@H](Cc1c[nH]cn1)NC(=O)[C@@H]1CCCN1C(=O)[C@@H]1CCC(=O)N1)C(=O)NCC(=O)N[C@@H](Cc1ccccc1)C(=O)N[C@@H](Cc1c[nH]cn1)C(=O)N[C@@H](CCCCN)C(=O)N[C@@H](CO)C(=O)N[C@@H](CCCNC(=N)N)C(N)=O
Work on B2 yielded an EC50 of IP1 accumulation in CHO-K1 cells expressing the receptor [2] of over 10000 nM and an EC50 of IP1 accumulation in CHO-K1 cells expressing the receptor [3] of over 10000 nM.

B3: apTKRP-2b analog with Asp instead of Gly at position eight (peptide)
peptide: [pGlu]PHLGFHDSR-NH2
SMILES: CC(C)C[C@H](NC(=O)[C@H](Cc1c[nH]cn1)NC(=O)[C@@H]1CCCN1C(=O)[C@@H]1CCC(=O)N1)C(=O)NCC(=O)N[C@@H](Cc1ccccc1)C(=O)N[C@@H](Cc1c[nH]cn1)C(=O)N[C@@H](CC(=O)O)C(=O)N[C@@H](CO)C(=O)N[C@@H](CCCNC(=N)N)C(N)=O
With B3 the EC50 of IP1 accumulation in CHO-K1 cells expressing the receptor [2] was over 10000 nM and the EC50 of IP1 accumulation in CHO-K1 cells expressing the receptor [3] was over 10000 nM.
